The text below walks through data of patent US20260069599A1, “INHIBITORS OF BROMODOMAIN-CONTAINING PROTEIN 4 AND PHOSPHOINOSITIDE 3-KINASE” (Board of Regents of the University of Nebraska, priority 2022, published 2026).

The target of assay [1] is T1, BRD4-BD2 (Homo sapiens, UniProt O60885). In words: Protein Thermal Shift (PTS) assay on BRD4-BD2. Further details: polyhistidine (N, cleaved yes); made in house; host or cells: E. coli (T7 express). As to conditions: 100 μM ligand, 20 μM BD protein; thermal destabilization. The assay is classed as binding. Here is the method:
The genes encoding human BRD2-BD1, BRD2-BD2, and BRD4-BD2 were codon-optimized for expression in E. coli. […] The sequence-confirmed plasmids were used to transform T7 express E coli. Large-scale cell cultures were grown in LB media containing […] carbenicillin and incubated with shaking at 37° C. until the OD600 nm reached 0.6. Then cultures were cooled to 16° C., and 1 mM isopropyl β-D-1-thiogalactopyranoside was added to induce the protein expression. After 20 hours of incubation, cells were harvested. The resulting cell pellet was resuspended in a lysis buffer containing 50 mM Tris pH 7.5, 200 mM NaCl, 0.5 mM imidazole, and 0.3 mM tris(2-carboxyethyl) phosphine (TECP). After the addition of DNase I and lysozyme, the cell suspension was incubated on ice for 30 minutes and lysed by sonication. The lysate was clarified by centrifugation at 12,000 rpm for 45 minutes. The resulting supernatant was applied to a 5 mL metal affinity cobalt column pre-equilibrated with lysis buffer. Then, 25 column volumes of lysis buffer were passed through the column to eliminate unbound E coli proteins. Recombinant protein was eluted isocratically with the elution buffer containing 50 mM Tris pH 7.5, 200 mM NaCl, 150 mM imidazole, and 0.3 mM TECP. The rhinovirus 3C protease was added to the eluted recombinant protein to cleave the N-terminal Histidine tag and the sample dialyzed against a buffer containing 50 mM Tris pH 7.5, 100 mM NaCl and 0.3 mM TECP. After 12 hours, the protein solution was passed through a 5 ml cobalt column, which was pre-equilibrated with dialysis buffer, and the recombinant protein lacking the His-tag was collected from the flowthrough.
Each reaction used 20 μM concentration of recombinant BD protein in a 50 mM Tris pH 7.5 buffer containing 100 mM NaCl, 0.3 mM tris(2-carboxyethyl) phosphine HCl, and 1% dimethyl sulfoxide. Protein Thermal Shift Dye (ThermoFisher) was also added at 1× concentration. Under these conditions, 3 protein melting curves with each respective BD and 100 μM final concentration of ligand were performed from 25 to 95° C. with a ramp rate of 0.5° C./minute. Evaluation of the derivative of the fluorescence signal employed the Applied Bioscience Protein Thermal Shift Software version 1.3 to determine the average melting temperature (Tm) for each sample and the standard deviation(s) of those Tm values.

In assay [2] the target is T1, BRD4-BD2. Further details: tested against BRD4-BD1 and BRD4-BD2 using a peptide-displacement assay. As to conditions: relative to SF2523; cited from earlier work.
The target of a further assay is T2, BRD4-BD1 (Homo sapiens, UniProt O60885).
T2 construct: tested against BRD4-BD1 and BRD4-BD2 using a peptide-displacement assay
Particulars: relative to SF2523; cited from earlier work.

Take `O=c1c(N2CCOCC2)nc(Br)c2n1CCc1ccccc1-2` [MDP3, 1-bromo-3-morpholino-6,7-dihydro-4H-pyrazino [2,1-a]isoquinolin-4-one]: on BRD4-BD2 [1], the “BRD4-BD2 Tm decrease” value was 1.3 °C.
Same read-out and setting: the value for `O=c1cc(N2CCOCC2)oc2c(Br)cccc12` [MDP4, 8-bromo-2-morpholino-4H-chromen-4-one] was 0.6 °C.
Turning to `O=C(NCc1cccnc1)c1cc(-c2csc3c(=O)cc(N4CCOCC4)oc23)cc2c1OCCO2` [SRX3212], the “better binding affinity than SF2523 for BRD4-BD2” value at BRD4-BD2 [2] is 48 fold. At BRD4-BD1, the “better binding affinity than SF2523 for BRD4-BD1” value is 65 fold.
